ChEMBL document CHEMBL1128942, “Pyrrolylquinoxalinediones: A new class of AMPA receptor antagonists” (Bioorg Med Chem Lett, 1996)

Experiments:
[1] = molecular target: Glutamate receptor ionotropic, AMPA (Mus musculus, UniProt P23818+P23819+Q9Z2W8+Q9Z2W9)
Description: Compound was tested for binding affinity against Ionotropic glutamate receptor AMPA using [3H]AMPA as a radioligand.

Mus musculus [2] = assay: In vivo AMPA antagonistic activity was determined by measuring ability to antagonize AMPA induced lethal convulsions in mice at 15 min upon intraperitoneal administration; type: functional; conditions: ip, 0.25 h
Mus musculus [3] = assay: In vivo AMPA antagonistic activity was determined by measuring ability to antagonize AMPA induced lethal convulsions in mice at 60 min upon intraperitoneal administration; type: functional; conditions: ip, 1 h

| Ki [1] | SMILES | ED50 (Mus musculus [2]) | ED50 (Mus musculus [3]) |
| --- | --- | --- | --- |
| > 25000 nM | Oc1nc2cc(C(F)(F)F)cc(-n3cccc3)c2nc1O | – | – |
| 3000 nM | Oc1nc2cc(-n3cccc3)c(C(F)(F)F)cc2nc1O | – | – |
| 20000 nM | Oc1nc2cc(Cl)c(-n3cccc3)cc2nc1O | – | – |
| > 25000 nM | COC(=O)Cn1c(=O)c(=O)[nH]c2cc(C(F)(F)F)c(-n3cccc3)cc21 | – | – |
| 25000 nM | O=c1[nH]c2cc(-n3cccc3)c([N+](=O)[O-])cc2n(C2CCCCC2)c1=O | – | – |
| 20000 nM | CNC(=O)Cn1c(=O)c(=O)[nH]c2cc(C(F)(F)F)c(-n3cccc3)cc21 | – | – |
| 580 nM | CCOC(=O)CCn1c(=O)c(=O)[nH]c2cc(C(F)(F)F)c(-n3cccc3)cc21 | – | – |
| 2700 nM | CCNC(=O)Cn1c(=O)c(=O)[nH]c2cc([N+](=O)[O-])c(-n3cccc3)cc21 | – | – |
| 3500 nM | O=c1[nH]c2cc([N+](=O)[O-])c(-n3cccc3)cc2n(C2CC2)c1=O | – | – |
| 1600 nM | O=c1[nH]c2cc(C(F)(F)F)c(-n3cccc3)cc2n(C2CCCCC2)c1=O | – | – |
| 15000 nM | CS(=O)(=O)c1cc2[nH]c(=O)c(=O)n(C3CCCCC3)c2cc1-n1cccc1 | – | – |
| 20000 nM | O=C(Cn1c(=O)c(=O)[nH]c2cc([N+](=O)[O-])c(-n3cccc3)cc21)NCc1ccccc1 | – | – |
| 10000 nM | O=c1[nH]c2cc(Cl)c(-n3cccc3)cc2n(C2CCCCC2)c1=O | – | – |
| 2100 nM | O=C(Cn1c(=O)c(=O)[nH]c2cc([N+](=O)[O-])c(-n3cccc3)cc21)Nc1ccccc1 | – | – |
| 6000 nM | CCC(CC)Cn1c(=O)c(=O)[nH]c2cc([N+](=O)[O-])c(-n3cccc3)cc21 | – | – |
| 8000 nM | O=C(CCn1c(=O)c(=O)[nH]c2cc(C(F)(F)F)c(-n3cccc3)cc21)NCc1ccccc1 | – | – |
| 20000 nM | O=C(Cn1c(=O)c(=O)[nH]c2cc([N+](=O)[O-])c(-n3cccc3)cc21)NCCc1ccccc1 | – | – |
| – | NS(=O)(=O)c1cccc2c1c([N+](=O)[O-])cc1nc(O)c(O)nc12 [NBQX] | > 50 mg/kg | > 50 mg/kg |

| SMILES | Ki [1] | ED50 (Mus musculus [2]) | ED50 (Mus musculus [3]) |
| --- | --- | --- | --- |
| O=C(O)Cn1c(=O)c(=O)[nH]c2cc(C(F)(F)F)c(-n3cccc3)cc21 | 170 nM | > 50 mg/kg | > 50 mg/kg |
| O=[N+]([O-])c1cc2nc(O)c(O)nc2cc1-n1cccc1 | 400 nM | 21 mg/kg | 31 mg/kg |
| O=C(O)Cn1c(=O)c(=O)[nH]c2cc([N+](=O)[O-])c(-n3cccc3)cc21 | 70 nM | 30 mg/kg | 30 mg/kg |
| O=C(O)CCn1c(=O)c(=O)[nH]c2cc([N+](=O)[O-])c(-n3cccc3)cc21 | 330 nM | > 30 mg/kg | > 30 mg/kg |
| CCn1c(=O)c(=O)[nH]c2cc([N+](=O)[O-])c(-n3cccc3)cc21 | 850 nM | > 50 mg/kg | 12 mg/kg |
| O=C(O)CCn1c(=O)c(=O)[nH]c2cc(C(F)(F)F)c(-n3cccc3)cc21 | 390 nM | > 50 mg/kg | > 50 mg/kg |
| O=c1[nH]c2cc([N+](=O)[O-])c(-n3cccc3)cc2n(C2CCCCC2)c1=O | 400 nM | > 50 mg/kg | 22 mg/kg |
| CCOC(=O)Cn1c(=O)c(=O)[nH]c2cc([N+](=O)[O-])c(-n3cccc3)cc21 | 910 nM | > 50 mg/kg | 26 mg/kg |
| CCOC(=O)CCn1c(=O)c(=O)[nH]c2cc([N+](=O)[O-])c(-n3cccc3)cc21 | 260 nM | > 30 mg/kg | 14 mg/kg |
